# Reference: patent US6387896B1, “Bicyclic oxazolidinones as antibacterial agents” (Pharmacia & Upjohn Co., priority 1999, dated 2002)
# Assays:
# [1] = system: Methicillin-susceptible S. aureus UC® 9213; test: Minimum inhibitory concentration (MIC) by agar dilution, S. aureus; assay type: cell-based; details: Staphylococcus aureus, UC9213, lowest concentration that inhibits visible growth
# From the text: (§1) The oxazolidinone antibacterial agents of this invention have useful activity against a variety of organisms. The in vitro activity of compounds of this invention can be assessed by standard testing procedures such as the determination of minimum inhibitory concentration (MIC) by agar dilution as described in “Approved Standard. Methods for Dilution Antimicrobial Susceptibility Tests for Bacteria That Grow Aerobically”, 3rd. ed., published 1993 by the National Committee for Clinical Laboratory Standards, Villanova, Pa., USA. The activity of compounds of this invention against Staphylococcus aureus, Staphylococcus epidermidis, Streptococcus pneumoniae, Enterococcus faecalis, Moraxella catarrhalis and H. influenzae is shown in Table 1. No. 1 is Methicillin-susceptible S. aureus UC® 9213. No. 2 is Moraxella catarrhalis UC® 30610. Minimum inhibitory concentration: lowest concentration of drug (μg/mL) that inhibits visible growth of the organism.
# [2] = system: Moraxella catarrhalis UC® 30610; test: Minimum inhibitory concentration (MIC) by agar dilution, Moraxella catarrhalis; assay type: cell-based; details: UC30610, lowest concentration that inhibits visible growth, read-out: Minimum Inhibitory Concentration M.CAT.
# From the text: as §1
melting point,MIC [1],MIC [2],Structure (SMILES)
130 to 133 °C,,,"CC(=O)NC[C@H]1CN(c2ccc3c(c2)CC(C)N3C(=O)CO)C(=O)O1 (stereo partly drawn) [Example 2, N-{[(5S)-3-(1-Glycoloyl-2-methyl-2,3-dihydro-1H-indol-5-yl)-2-oxo-1,3-oxazolidin-5-yl]methyl}acetamide]"
118 to 119 °C,2 µg/mL,4 µg/mL,"CCC(=O)NC[C@H]1CN(c2ccc3c(c2)C[C@@H](C)N3C=O)C(=O)O1 [Example 5, N-({(5S)-3-[(2R)-1-Formyl-2-methyl-2,3-dihydro-1H-indol-5-yl]-2-oxo-1,3-oxazolidin-5-yl}methyl)propanamide]"
,4 µg/mL,8 µg/mL,"CC(=O)NC[C@H]1CN(c2ccc(N3CCN(C(=O)CO)CC3)c(F)c2)C(=O)O1 [eperezolid, reference compound]"
118 to 121 °C (dec.),,,"CC(=O)NC[C@H]1CN(c2ccc3c(c2)OCC(C)N3C=O)C(=O)O1 (stereo partly drawn) [Example 16, N-{[(5S)-3-(4-Formyl-3-methyl-3,4-dihydro-2H-1,4-benzoxazin-7-yl)-2-oxo-1,3-oxazolidin-5-yl]methyl}acetamide]"
158 to 159 °C,1 µg/mL,4 µg/mL,"CC(=O)NC[C@H]1CN(c2ccc3c(c2)C[C@@H](C)N3C=O)C(=O)O1 [Example 4, N-({(5S)-3-[(2R)-1-Formyl-2-methyl-2,3-dihydro-1H-indol-5-yl]-2-oxo-1,3-oxazolidin-5-yl}methyl)acetamide]"
,4 µg/mL,4 µg/mL,"CC(=O)NC[C@H]1CN(c2ccc3c(c2)C[C@@H](C)N3C(=O)CO)C(=O)O1 [Example 3, N-({(5S)-3-[(2R)-1-Glycoloyl-2-methyl-2,3-dihydro-1H-indol-5-yl]-2-oxo-1,3-oxazolidin-5-yl}methyl)acetamide]"
109 to 111 °C,4 µg/mL,8 µg/mL,"CNC(=S)N1c2ccc(N3C[C@H](CNC(C)=O)OC3=O)cc2C[C@H]1C [Example 10, N-[((5S)-3-{(2R)-2-Methyl-1-[(methylamino)carbothioyl]-2,3-dihydro-1H-indol-5-yl}-2-oxo-1,3-oxazolidin-5-yl)methyl]acetamide]"
89 to 91 °C,2 µg/mL,4 µg/mL,"CC(=O)NC[C@H]1CN(c2ccc3c(c2)CC[C@@H](C)N3C=O)C(=O)O1 [Example 14, N-({(5S)-3-[(2R)-1-Formyl-2-methyl-1,2,3,4-tetrahydro-6-quinolinyl]-2-oxo-1,3-oxazolidin-5-yl}methyl)acetamide]"
115 to 117 °C,< 0.5 µg/mL,1 µg/mL,"CC(=S)NC[C@H]1CN(c2ccc3c(c2)C[C@@H](C)N3C(=O)CO)C(=O)O1 [Example 12, N-({(5S)-3-[(2R)-1-Glycoloyl-2-methyl-2,3-dihydro-1H-indol-5-yl]-2-oxo-1,3-oxazolidin-5-yl}methyl)ethanethioamide]"
95 to 98 °C,< 0.5 µg/mL,2 µg/mL,"CC(=S)NC[C@H]1CN(c2ccc3c(c2)OC[C@@H](C)N3C=O)C(=O)O1 [Example 18, N-({(5S)-3-[(3R)-4-Formyl-3-methyl-3,4-dihydro-2H-1,4-benzoxazin-7yl]-2-oxo-1,3-oxazolidin-5-yl}methyl)ethanethioamide]"
132 to 136 °C,4 µg/mL,16 µg/mL,"CC(=O)NC[C@H]1CN(c2ccc3c(c2)CC(CF)N3C=O)C(=O)O1 (stereo partly drawn) [Example 19, (S)-N-[[3-[1-Formyl-2-(fluoromethyl)-5-indolinyl]-2-oxo-5-oxazolidinyl]methyl]acetamide]"
148 to 151 °C,4 µg/mL,8 µg/mL,"CC(=O)NC[C@H]1CN(c2ccc3c(c2)OC[C@@H](C)N3C=O)C(=O)O1 [Example 17, N-({(5S)-3-[(3R)-4-Formyl-3-methyl-3,4-dihydro-2H-1,4-benzoxazin-7-yl]-2-oxo-1,3-oxazolidin-5-yl}methyl)acetamide]"
85 to 87 °C,,,"CC(=O)NC[C@H]1CN(c2ccc3c(c2)CCC(C)N3C=O)C(=O)O1 (stereo partly drawn) [Example 13, N-{[(5S)-3-(1-Formyl-2-methyl-1,2,3,4-tetrahydro-6-quinolinyl)-2-oxo-1,3-oxazolidin-5-yl]methyl}acetamide]"
186 to 187 °C,8 µg/mL,16 µg/mL,"CC(=O)NC[C@H]1CN(c2ccc3c(c2)C[C@@H](C)N3C(=O)COC(C)=O)C(=O)O1 [Example 8, 2-((2R)-5-{(5S)-5-[(Acetylamino)methyl]-2-oxo-1,3-oxazolidin-3-yl}-2-methyl-2,3-dihydro-1H-indol-1-yl)-2-oxoethyl acetate]"
184 to 185 °C,2 µg/mL,8 µg/mL,"CC(=O)NC[C@H]1CN(c2ccc3c(c2)C[C@@H](C)N3C(C)=O)C(=O)O1 [Example 9, N-({(5S)-3-[(2R)-1-Acetyl-2-methyl-2,3-dihydro-1H-indol-5-yl]-2-oxo-1,3-oxazolidin-5-yl}methyl)acetamide]"
174 to 175 °C,4 µg/mL,8 µg/mL,"COCC(=O)N1c2ccc(N3C[C@H](CNC(C)=O)OC3=O)cc2C[C@H]1C [Example 7, N-({(5S)-3-[(2R)-1-(2-Methoxyacetyl)-2-methyl-2,3-dihydro-1H-indol-5-yl]-2-oxo-1,3-oxazolidin-5-yl}methyl)acetamide]"
,4 µg/mL,8 µg/mL,"CC(=O)NC[C@H]1CN(c2ccc(N3CCOCC3)c(F)c2)C(=O)O1 [linezolid, reference compound]"
184 to 186 °C,< 0.5 µg/mL,1 µg/mL,"CC(=S)NC[C@H]1CN(c2ccc3c(c2)CC[C@@H](C)N3C=O)C(=O)O1 [Example 15, N-({(5S)-3-[(2R)-1-Formyl-2-methyl-1,2,3,4-tetrahydro-6-quinolinyl]-2-oxo-1,3-oxazolidin-5-yl}methyl)ethanethioamide]"
219 to 221 °C,2 µg/mL,4 µg/mL,"CC(=S)NC[C@H]1CN(c2ccc3c(c2)CC(C(C)(C)C)N3C=O)C(=O)O1 (stereo partly drawn) [Example 21, N-[[(5S)-3-[2-(1,1-dimethylethyl)-1-formyl-2,3-dihydro-1H-indol-5-yl]-2-oxo-5-oxazolidinyl]methyl]ethanethioamide]"
95 to 96 °C,< 0.5 µg/mL,1 µg/mL,"CC(=S)NC[C@H]1CN(c2ccc3c(c2)C[C@@H](C)N3C=O)C(=O)O1 [Example 6, N-({(5S)-3-[(2R)-1-Formyl-2-methyl-2,3-dihydro-1H-indol-5-yl]-2-oxo-1,3-oxazolidin-5-yl}methyl)ethanethioamide]"
127 to 130 °C,,,"CC(=O)NC[C@H]1CN(c2ccc3c(c2)CC(C)N3CCF)C(=O)O1 (stereo partly drawn) [Example 1, N-({(5S)-3-[1-(2-Fluoroethyl)-2-methyl-2,3-dihydro-1H-indol-5-yl]-2-oxo-1,3-oxazolidin-5-yl}methyl)acetamide]"
,4 µg/mL,16 µg/mL,"CC(=O)NCC1CN(c2ccc3c(c2)CC(C)S3)C(=O)O1 (stereo in doubt) [Example 20, N-{[(5R)-3-(2(+)-methyl-2,3-dihydro-1-benzothien-5-yl)-2-oxo-1,3-oxazolidin-5-yl]methyl}acetamide]"
,1 µg/mL,4 µg/mL,"CC(=O)OCC(=O)N1c2ccc(N3C[C@H](CNC(C)=S)OC3=O)cc2C[C@H]1C [Example 11, 2-((2R)-5-{(5S)-5-[(Ethanethioylamino)methyl]-2-oxo-1,3-oxazolidin-3-yl}-2-methyl-2,3-dihydro-1H-indol-1-yl)-2-oxoethyl acetate]"

Structure (SMILES),melting point,MIC [1],MIC [2]
"CN[C@H](CC(C)C)C(=O)N[C@H]1C(=O)N[C@@H](CC(N)=O)C(=O)N[C@H]2C(=O)N[C@H]3C(=O)N[C@H](C(=O)N[C@H](C(=O)O)c4cc(O)cc(O)c4-c4cc3ccc4O)[C@H](O)c3ccc(c(Cl)c3)Oc3cc2cc(c3O[C@@H]2O[C@H](CO)[C@@H](O)[C@H](O)[C@H]2O[C@H]2C[C@](C)(N)[C@H](O)[C@H](C)O2)Oc2ccc(cc2Cl)[C@H]1O [vancomycin, reference compound]",,1 µg/mL,> 32 µg/mL
